Measured values reported in BindingDB's records for doi:10.7270/Q2HM56V2 (The Scripps Research Institute Molecular Screening Center, 2008).

Molecular target: T1, Signal transducer and activator of transcription 1-alpha/beta (Homo sapiens, UniProt P42224)
T1 sequence (P42224 whole entry): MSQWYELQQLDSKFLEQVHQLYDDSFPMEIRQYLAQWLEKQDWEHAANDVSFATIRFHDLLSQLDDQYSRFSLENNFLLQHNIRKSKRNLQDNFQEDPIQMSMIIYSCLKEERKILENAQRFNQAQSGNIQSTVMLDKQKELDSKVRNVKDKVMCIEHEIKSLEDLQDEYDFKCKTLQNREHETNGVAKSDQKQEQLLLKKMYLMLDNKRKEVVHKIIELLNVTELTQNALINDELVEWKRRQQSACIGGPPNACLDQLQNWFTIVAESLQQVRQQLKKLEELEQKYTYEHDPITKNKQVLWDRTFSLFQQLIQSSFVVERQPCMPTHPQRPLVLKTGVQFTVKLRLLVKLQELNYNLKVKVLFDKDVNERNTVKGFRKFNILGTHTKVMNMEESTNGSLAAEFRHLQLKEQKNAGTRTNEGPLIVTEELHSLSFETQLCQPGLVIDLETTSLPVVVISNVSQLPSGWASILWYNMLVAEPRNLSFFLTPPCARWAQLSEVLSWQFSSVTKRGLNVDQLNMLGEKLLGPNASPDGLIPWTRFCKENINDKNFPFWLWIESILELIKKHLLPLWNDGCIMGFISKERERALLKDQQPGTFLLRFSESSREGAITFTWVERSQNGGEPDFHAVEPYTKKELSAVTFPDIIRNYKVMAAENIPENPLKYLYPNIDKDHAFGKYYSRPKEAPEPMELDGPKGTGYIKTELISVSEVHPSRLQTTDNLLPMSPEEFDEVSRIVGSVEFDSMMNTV
Assay: PubChem AID 1406

## Cc1[nH]n(-c2ccccc2)c(=O)c1C=C1C(=O)NC(=O)NC1=O
  EC50: > 55.7 µM
